# Measured values reported in ChEMBL document CHEMBL1777766, “Design, synthesis and in vitro antibacterial activity of 7-(4-alkoxyimino-3-aminomethylpiperidin-1-yl)fluoroquinolone derivatives” (Bioorg Med Chem Lett, 2011).
# Experiments:
# Staphylococcus aureus [1] = experiment: Antibacterial activity against methicillin-sensitive Staphylococcus aureus 08-49; assay type: functional
# Staphylococcus aureus [2] = experiment: Antibacterial activity against Staphylococcus aureus ATCC 13709; assay type: functional
# Staphylococcus aureus [3] = experiment: Antibacterial activity against methicillin-resistant Staphylococcus aureus 08-52; assay type: functional
# [4] = system: Staphylococcus epidermidis; experiment: Antibacterial activity against Staphylococcus epidermidis ATCC 12228; assay type: functional
# [5] = system: Staphylococcus epidermidis; experiment: Antibacterial activity against methicillin-sensitive Staphylococcus epidermidis 08-17; assay type: functional
# [6] = system: Staphylococcus epidermidis; experiment: Antibacterial activity against methicillin-resistant Staphylococcus epidermidis 08-18; assay type: functional
# Streptococcus pneumoniae [7] = experiment: Antibacterial activity against Streptococcus pneumoniae ATCC 6301; assay type: functional
# Streptococcus pneumoniae [8] = experiment: Antibacterial activity against penicillin-resistant Streptococcus pneumoniae 08-2; assay type: functional
# Enterococcus faecalis [9] = experiment: Antibacterial activity against Enterococcus faecalis ATCC 51299; assay type: functional
# Enterococcus faecalis [10] = experiment: Antibacterial activity against vancomycin-resistant Enterococcus faecalis EFL1004; assay type: functional
# Streptococcus pyogenes = experiment: Antibacterial activity against Streptococcus pyogenes 556; assay type: functional
# Escherichia coli [11] = experiment: Antibacterial activity against Escherichia coli ATCC 25922; assay type: functional
# Escherichia coli [12] = experiment: Antibacterial activity against Extended spectrum beta-lactamase producing Escherichia coli 08-5; assay type: functional
# Klebsiella pneumoniae = experiment: Antibacterial activity against Klebsiella pneumoniae ATCC 700603; assay type: functional
# Pseudomonas aeruginosa [13] = experiment: Antibacterial activity against Pseudomonas aeruginosa 17; assay type: functional
# Shigella sonnei = experiment: Antibacterial activity against Shigella sonnei 51592; assay type: functional
# Salmonella typhi = experiment: Antibacterial activity against Bacillus typhi 50035; assay type: functional, Salmonella enterica subsp. enterica serovar Typhi; details: Salmonella enterica
# Enterobacter cloacae = experiment: Antibacterial activity against Enterobacter cloacae 45301; assay type: functional
# [14] = system: Acinetobacter calcoaceticus; experiment: Antibacterial activity against Acinetobacter calcoaceticus 25001; assay type: functional
# Klebsiella aerogenes = experiment: Antibacterial activity against Enterobacter aerogenes 45102; assay type: functional
# Serratia marcescens = experiment: Antibacterial activity against Serratia marcescens 41002; assay type: functional
# Morganella morganii = experiment: Antibacterial activity against Morganella morganii 49086; assay type: functional
# Providencia rettgeri = experiment: Antibacterial activity against Proteus rettgeri 49006; assay type: functional
# Proteus vulgaris = experiment: Antibacterial activity against Proteus vulgaris 56; assay type: functional
# Pseudomonas aeruginosa [15] = experiment: Ratio of MIC for compound to MIC for GMFX against Pseudomonas aeruginosa 17; assay type: functional
# Pseudomonas aeruginosa [16] = experiment: Ratio of MIC for compound to MIC for LVFX against Pseudomonas aeruginosa 17; assay type: functional
# Pseudomonas aeruginosa [17] = experiment: Ratio of MIC for compound to MIC for CPFX against Pseudomonas aeruginosa 17; assay type: functional
# [18] = Cytotoxicity against african green monkey Vero cells after 24 hrs; assay type: cell-based; details: chlorocebus sabaeus
Structure (SMILES),MIC (Staphylococcus aureus [1]) [µg/mL],MIC (Staphylococcus aureus [2]) [µg/mL],MIC (Staphylococcus aureus [3]) [µg/mL],MIC [4] [µg/mL],MIC [5] [µg/mL],MIC [6] [µg/mL],MIC (Streptococcus pneumoniae [7]) [µg/mL],MIC (Streptococcus pneumoniae [8]) [µg/mL],MIC (Enterococcus faecalis [9]) [µg/mL],MIC (Enterococcus faecalis [10]) [µg/mL],MIC (Streptococcus pyogenes) [µg/mL],MIC (Escherichia coli [11]) [µg/mL],MIC (Escherichia coli [12]) [µg/mL],MIC (Klebsiella pneumoniae) [µg/mL],MIC (Pseudomonas aeruginosa [13]) [µg/mL],MIC (Shigella sonnei) [µg/mL],MIC (Salmonella typhi) [µg/mL],MIC (Enterobacter cloacae) [µg/mL],MIC [14] [µg/mL],MIC (Klebsiella aerogenes) [µg/mL],also measured
CCO/N=C1\CCN(c2nc3c(cc2F)c(=O)c(C(=O)O)cn3-c2ccc(F)cc2F)CC1CN (racemic),0.25,0.25,1,0.25,1,0.25,2,0.5,1,4,4,2,> 128,32,4,2,2,2,4,2,MIC (Serratia marcescens): 16 µg/mL; MIC (Morganella morganii): 4 µg/mL; MIC (Providencia rettgeri): 8 µg/mL; MIC (Proteus vulgaris): 4 µg/mL; Ratio (Pseudomonas aeruginosa [15]): 2; Ratio (Pseudomonas aeruginosa [16]): 2; Ratio (Pseudomonas aeruginosa [17]): 2; CC50 at 24 h [18]: 72.6 µg/mL
CCO/N=C1\CCN(c2c(F)cc3c(=O)c(C(=O)O)cn(CC)c3c2F)CC1CN (racemic),4,4,8,8,32,8,64,32,16,32,64,8,> 128,> 128,128,128,8,> 128,128,16,MIC (Serratia marcescens): 16 µg/mL; MIC (Morganella morganii): 16 µg/mL; MIC (Providencia rettgeri): 32 µg/mL; MIC (Proteus vulgaris): 16 µg/mL; CC50 at 24 h [18]: 410 µg/mL
CO/N=C1\CCN(c2nc3c(cc2F)c(=O)c(C(=O)O)cn3-c2ccc(F)cc2F)CC1CN (racemic),0.25,0.5,2,0.5,2,0.5,1,0.5,2,4,1,1,> 128,32,4,2,2,2,4,2,MIC (Serratia marcescens): 8 µg/mL; MIC (Morganella morganii): 4 µg/mL; MIC (Providencia rettgeri): 8 µg/mL; MIC (Proteus vulgaris): 8 µg/mL; Ratio (Pseudomonas aeruginosa [15]): 2; Ratio (Pseudomonas aeruginosa [16]): 2; Ratio (Pseudomonas aeruginosa [17]): 2; CC50 at 24 h [18]: 96 µg/mL
CCO/N=C1\CCN(c2c(F)cc3c(=O)c(C(=O)O)cn(C4CC4)c3c2OC(F)F)CC1CN (racemic),0.25,1,2,2,4,2,8,4,2,4,16,4,> 128,64,16,2,2,8,4,8,MIC (Serratia marcescens): 32 µg/mL; MIC (Morganella morganii): 8 µg/mL; MIC (Providencia rettgeri): 16 µg/mL; MIC (Proteus vulgaris): 8 µg/mL; CC50 at 24 h [18]: 203 µg/mL
CO/N=C1\CCN(c2c(F)cc3c(=O)c(C(=O)O)cn(C4CC4)c3c2OC)CC1CN (racemic),0.25,0.5,4,1,4,4,4,4,4,8,8,4,> 128,64,8,4,4,> 128,4,4,MIC (Serratia marcescens): 8 µg/mL; MIC (Morganella morganii): 4 µg/mL; MIC (Providencia rettgeri): 8 µg/mL; MIC (Proteus vulgaris): 8 µg/mL; CC50 at 24 h [18]: 395 µg/mL
